Structures can show the parent of a compound that is named as a salt. Where two headings read alike, the source gives them in different places.
Tests used:
Jurkat T cells = assay: IL-2 production in Jurkat T cells in response to anti-CD3/anti-CD28 antibody stimulation; type: cell-based; conditions: Homo sapiens, read-out: Cellular activity grade (Jurkat) (Cellular IC50)
[1] = test system: A549 human lung epithelium cell line; assay: RANTES production in response to TNF-α from A549 cells; type: cell-based; conditions: 100 ng/ml TNF-α, read-out: Cellular activity grade (A549) (Cellular IC50)
Summary of the method: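 RANTES released into supernatant was measured by DELFIA-type sandwich immunoassay, Eu-labelled detection antibody, 340 nm excitation/615 nm emission, recombinant RANTES standard. Beforehand, cells seeded at 4×10^4/well received test compound (1% DMSO) for 1 h at 37 °C, followed by 24 h TNF-α (100 ng/ml) stimulation.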

| Structure (SMILES) | IC50 (Jurkat T cells) [nM] | IC50 ([1]; Homo sapiens, A549, A549 cells) [nM] | IC50 ([1]; A549 cells) [nM] |
| --- | --- | --- | --- |
| N#Cc1c(C2CCCNC2)cc(-c2ccccc2O)nc1N (stereo not shown) [Example 1-1, 2-amino-6-(2-hydroxyphenyl)-4-(3-piperidinyl)-nicotinonitrile hydrochloride] | < 1000 | < 1000 |  |
| N#Cc1c(C2CCNC2)cc(-c2ccccc2O)nc1N (stereo not shown) [Example 1-2, 2-amino-6-(2-hydroxyphenyl)-4-(3-pirrolidinyl)nicotinonitrile trifluoroacetate] | 1000 to 10000 | < 1000 |  |
| N#Cc1c(C2CCCNC2)cc(-c2ccccc2O)nc1NCc1ccccc1 (stereo not shown) [Example 4-1, 2-(benzylamino)-6-(2-hydroxyphenyl)-4-(3-piperidinyl)nicotinonitrile hydrochloride] | 1000 to 10000 | 1000 to 10000 |  |
| N#Cc1c(N)nc(-c2ccccc2O)c(F)c1C1CCCNC1 (stereo not shown) [Example 1-4, 2-amino-5-fluoro-6-(2-hydroxyphenyl)-4-(3-piperidinyl)-nicotinonitrile trifluoroacetate] | 1000 to 10000 | 1000 to 10000 |  |
| Nc1nc(-c2c(O)cccc2F)cc(C2CCCNC2)c1CO (stereo not shown) [Example 11-2, 2-[6-amino-5-(hydroxymethyl)-4-(3-piperidinyl)-2-pyridinyl]-3-fluorophenol hydrochloride] |  | < 1000 |  |
| NC(=O)c1c(C2CCCNC2)cc(-c2ccccc2O)nc1N (stereo not shown) [Example 7-1, 2-amino-6-(2-hydroxyphenyl)-4-(3-piperidinyl)nicotinamide hydrochloride] |  | 1000 to 10000 |  |
| CCCNc1nc(-c2ccccc2O)cc(C2CCCNC2)c1C#N (stereo not shown) [Example 4-2, 6-(2-hydroxyphenyl)-4-(3-piperidinyl)-2-(propylamino)nicotinonitrile hydrochloride] |  | > 10000 |  |
| CC(=O)Nc1n[nH]c2nc(-c3ccccc3O)cc(C3CCCNC3)c12 (stereo not shown) [Example 5-2, N-[6-(2-hydroxyphenyl)-4-(3-piperidinyl)-1H-pyrazolo[3,4-b]pyridin-3-yl]acetamide hydrochloride] |  | > 10000 |  |
| Cc1c(C2CCCNC2)cc(-c2ccccc2O)nc1N (stereo not shown) [Example 14-1, 2-[6-amino-5-methyl-4-(3-piperidinyl)-2-pyridinyl]phenol hydrochloride] | 1000 to 10000 | < 1000 |  |
| COCc1c(C2CCCNC2)cc(-c2ccccc2O)nc1N (stereo not shown) [Example 13-1, 2-[6-amino-5-(methoxymethyl)-4-(3-piperidinyl)-2-pyridinyl]phenol hydrochloride] |  | < 1000 |  |

Further lines, results first:

| IC50 (Jurkat T cells) [nM] | IC50 ([1]; Homo sapiens, A549, A549 cells) [nM] | IC50 ([1]; A549 cells) [nM] | Structure (SMILES) |
| --- | --- | --- | --- |
| 1000 to 10000 | < 1000 |  | O=C1Nc2nc(-c3ccccc3O)cc(C3CCCNC3)c2CO1 (stereo not shown) [Example 18-2, 7-(2-hydroxyphenyl)-5-(3-piperidinyl)-1,4-dihydro-2H-pyrido[2,3-d][1,3]oxazin-2-one hydrochloride] |
|  | 1000 to 10000 |  | Nc1nc(-c2c(O)cccc2OCC2CC2)cc(C2CCCNC2)c1CSc1ccccc1 (stereo not shown) [Example 21-1, 2-[6-amino-5-[(phenylsulfanyl)methyl]-4-(3-piperidinyl)-2-pyridinyl]-3-(cyclopropylmethoxy)phenol hydrochloride] |
|  | < 1000 |  | Oc1cccc(OCC2CC2)c1-c1cc(C2CCCNC2)c2c(n1)NCOC2 (stereo not shown) [Example 17-1, 3-(cyclopropylmethoxy)-2-[5-(3-piperidinyl)-1,4-dihydro-2H-pyrido[2,3-d][1,3]oxazin-7-yl]-phenol hydrochloride] |
|  | 1000 to 10000 |  | Oc1ccccc1-c1cc(C2CCCNC2)c2cn[nH]c2n1 (stereo not shown) [Example 16-1, 2-(4-Piperidin-3-yl-1H-pyrazolo[3,4-b]pyridin-6-yl)-phenol hydrochloride] |
|  | < 1000 |  | Nc1cc2c(C3CCCNC3)cc(-c3c(O)cccc3OCC3CC3)nc2[nH]c1=O (stereo not shown) [Example 29-01, 3-amino-7-[2-(cyclopropylmethoxy)-6-hydroxyphenyl]-5-(3-piperidinyl)-1,8-naphthyridin-2(1H)-one hydrochloride] |
|  | < 1000 |  | O=C1NCc2c(C3CCNCC3)cc(-c3c(O)cccc3OCC3CC3)nc2N1 [Example 22-3, 7-[2-(cyclopropylmethoxy)-6-hydroxyphenyl]-5-(4-piperidinyl)-3,4-dihydro-1H-pyrido[2,3-d]pyrimidin-2-one hydrochloride] |
|  | 1000 to 10000 |  | O=C(Nc1cc2c(C3CCCNC3)cc(-c3c(O)cccc3OCC3CC3)nc2[nH]c1=O)c1ccccc1 (stereo not shown) [Example 29-2, N-[7-[2-(cyclopropylmethoxy)-6-hydroxyphenyl]-2-oxo-5-(3-piperidinyl)-1,2-dihydro-1,8-naphthyridin-3-yl]benzamide hydrochloride] |
|  | 1000 to 10000 |  | NC(Cc1ccccc1)c1cc(-c2ccccc2O)nc2c1COC(=O)N2 (stereo not shown) [Example 18-4/18-5, 5-(1-Amino-2-phenyl-ethyl)-7-(2-hydroxy-phenyl)-1,4-dihydro-pyrido[2,3-d][1,3]oxazin-2-one hydrochloride] |
|  | < 1000 |  | CCCNC(=O)c1cc2c(C3CCCNC3)cc(-c3c(O)cccc3OCC3CC3)nc2[nH]c1=O (stereo not shown) [Example 31-1, 7-[2-(cyclopropylmethoxy)-6-hydroxyphenyl]-2-oxo-5-(3-pipedinyl)-N-propyl-1,2-dihydro-1,8-naphthyridine-3-carboxamide] |
|  | 1000 to 10000 |  | O=C(O)c1cc2c(C3CCCNC3)cc(-c3c(O)cccc3OCC3CC3)nc2[nH]c1=O (stereo not shown) [Example 30-1, 7-(2-cyclopropylmethoxy-6-hydroxy-phenyl)-2-oxo-5-piperidin-3-yl-1,2-dihydro[1,8]naphthyridine-3-carboxylic acid hydrochloride] |
|  | > 10000 |  | Nc1nc(-c2c(O)cccc2OCc2ccccc2)cc2c1CN1CCCC2C1 (stereo not shown) [Example 20-1, 2-(6-amino-5,9-diazatricyclo[7.3.1.02,7]trideca-2,4,6-trien-4-yl)-3-(benzyloxy)phenol hydrochloride] |
|  |  | 1000 to 10000 | Nc1nc(-c2ccccc2O)cc2c1CNC2Cc1ccccc1 (stereo in doubt) [Example 20-3, 2-[(1S)-4-amino-1-benzyl-2,3-dihydro-1H-pyrrolo[3,4-c]pyridin-6-yl]phenol hydrochloride] |

— patent publication US6984649B1, “Pyridine derivatives” (Bayer Aktiengesellschaft, priority 2000, dated 2006)
